Several values for one entry are separate records, joined by “and”; a condition that tells them apart may be missing. Identical values can stand only once.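 Compound exposure: 48 hours, 5 concentrations, 96-well plates. GI50 = concentration required for 50% inhibition of growth. Definition used: TGI = concentration required for complete inhibition of growth.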
What was measured:
Experiment in all cases: inhibition of tumour cell growth, NCI panel, 48 h
PC-3 prostate = system: PC-3 prostate
SNB-75 CNS = system: SNB-75 CNS
SK-MEL-2 melanoma = system: SK-MEL-2 melanoma
LOX IMVI melanoma = system: LOX IMVI melanoma
MALME-3M melanoma = system: MALME-3M melanoma
SF-295 CNS = system: SF-295 CNS
RXF 393 renal = system: RXF 393 renal
HCT-15 colon = system: HCT-15 colon
OVCAR-3 ovarian = system: OVCAR-3 ovarian
COLO 205 colon = system: COLO 205 colon

Structure (SMILES) | GI50 (PC-3 prostate) | TGI (PC-3 prostate) | GI50 (SNB-75 CNS) | TGI (SNB-75 CNS) | GI50 (SK-MEL-2 melanoma) | TGI (SK-MEL-2 melanoma) | GI50 (LOX IMVI melanoma) | TGI (LOX IMVI melanoma) | GI50 (MALME-3M melanoma) | TGI (MALME-3M melanoma) | GI50 (SF-295 CNS) | TGI (SF-295 CNS) | GI50 (RXF 393 renal) | TGI (RXF 393 renal) | GI50 (HCT-15 colon) | TGI (HCT-15 colon) | GI50 (OVCAR-3 ovarian) | TGI (OVCAR-3 ovarian) | GI50 (COLO 205 colon) | TGI (COLO 205 colon)
O=C1C2CC3C(CC2C(=O)[N]1[Sn]([c]1ccccc1)([c]1ccccc1)[c]1ccccc1)C1(Cl)C(Cl)=C(Cl)C3(Cl)C1(Cl)Cl (stereo not drawn) | 0.0958 µM | 0.315 µM | 0.0347 µM | 0.19 µM | 0.167 µM | 0.351 µM | 0.0588 µM | 0.184 µM | 0.195 µM | 0.387 µM | 0.212 µM | 0.455 µM | 0.0863 µM | 0.26 µM | 0.054 µM | 0.209 µM | 0.0964 µM | 0.222 µM | 0.152 µM | 0.33 µM
CC1(C)SC2C(C(=O)O)N=C(Cc3ccccc3)N2C1C(=O)O (stereo not drawn) | – | > 100 µM | – | 49.2 µM | – | > 100 µM | – | 60.5 µM | – | > 100 µM | – | > 100 µM | – | > 100 µM | – | > 100 µM | – | > 100 µM | – | > 100 µM
COc1ccc(C(=S)c2cc(OC)c(OC)c(OC)c2)cc1OC(=O)CCl | < 0.0172 µM | > 100 µM | < 0.0114 µM | > 100 µM | 33.1 µM | > 100 µM | 0.0102 µM | > 100 µM | 0.58 µM | > 76.6 µM | 0.0356 µM | > 100 µM | 0.022 µM | > 77.3 µM | < 0.01 µM | > 100 µM | 0.0227 µM | 0.0813 µM | 1.3 µM | 17 µM
CC[C@H](C)c1occ2c(O)c(C(=O)O)c(=O)cc-2c1C | – | > 100 µM | – | > 100 µM | – | 34 µM | – | 32.8 µM | – | 37.7 µM | – | 99.3 µM | – | 33.5 µM | – | 32.1 µM | – | 42.4 µM | – | 36.8 µM
N=c1ccn2c(n1)OC1C(OP(=O)(O)O)C(CO)OC12 (stereo not drawn) | – | > 100 µM | – | > 100 µM | – | > 100 µM | – | > 100 µM | – | > 100 µM | – | > 100 µM | – | > 100 µM | – | > 100 µM | – | > 100 µM | – | > 100 µM
O=C(OC(C(=O)O)C(OC(=O)c1ccccc1)C(=O)O)c1ccccc1 (stereo not drawn) (tested in a mixture with another compound) | – | 33.5 µM | – | > 100 µM and 56 µM | – | > 100 µM and 28.7 µM | – | > 100 µM and 44.6 µM | – | > 100 µM | – | > 100 µM | – | > 100 µM | – | > 100 µM | – | > 69.1 µM | – | > 100 µM and 16.6 µM
COc1ccc(OC)c(/C=C/c2nnc(Nc3ccc(Cl)cc3)o2)c1 | 13.3 µM | 76 µM | 2.26 µM | 7.94 µM | 9.66 µM | > 100 µM | 7.91 µM | > 100 µM | 9.87 µM | 52.4 µM | 6.15 µM | 64.5 µM | 2.71 µM | 7.92 µM | 34.1 µM | > 100 µM | 3.55 µM | 15.9 µM | 16.6 µM | > 100 µM
O=S(=O)(/C=C/C=C/S(=O)(=O)c1ccccc1)c1ccccc1 | 1.9 µM | 7.38 µM and 3.98 µM | 13.9 µM | 26.8 µM | 1.4 µM | 5.68 µM and 3.47 µM | 1.42 µM | 2.42 µM and 3.33 µM | 1.54 µM | 2.8 µM and 3.01 µM | – | 22.2 µM | – | 0.809 µM and 1.45 µM | 0.189 µM | 2.7 µM and 0.795 µM | 1.46 µM | 1.82 µM and 2.9 µM | 1.02 µM | 2.77 µM and 2.71 µM
